Source: US11891366B1, “4-methoxy-n′-(2-(5-phenyl-1,3,4-oxadiazol-2-ylthio)acetoxy)benzimidamide as an antimicrobial compound” (KING FAISAL UNIVERSITY, priority 2023, dated 2024)

Key:
Format in all cases: cell-based
Bacillus Cereus = assay: Agar plate disc-diffusion, antibacterial activity (inhibition zone); conditions: nutrient agar, 37° C., 48 hours
Experimental: (§1) The agar plate disc-diffusion method was applied. Sterilized filter papers (6 mm in diameter) were wetted with 10 μL of a solution 4-methoxy-N′-(2-(5-phenyl-1,3,4-oxadiazol-2-ylthio)acetoxy)benzimidamide (3) to be tested, containing 10 mg/mL in DMSO, and the discs were allowed to air dry. The discs were then placed onto the surface of agar plates (nutrient agar for bacteria and Sabouraud's dextrose agar for fungi) seeded with the test organism. Each plate contained 15 mL of the agar medium, previously seeded with 0.2 mL of the broth culture of each organism pregrown for 18 hours. The plates were incubated at 37° C. for 48 hours, and 72 hours for fungi. The inhibition zones were measured in millimeters (mm). Discs impregnated with DMSO were used as a control, and its inhibition zone was subtracted from the tested compound actual inhibition zone.

Escherichia coli = assay: as above; conditions: nutrient agar, 37° C., 48 hours
Experimental: as §1, with “Sterilized filter papers (6 mm in diameter) were wetted with 10 μL of a solution 4-methoxy-N′-(2-(5-phenyl-1,3,4-oxadiazol-2-ylthio)acetoxy)benzimidamide (3) to be tested, containing 10 mg/mL in DMSO, and the discs were allowed to air dry.” left out

Pseudomonas aeruginosa = assay: as above; conditions: nutrient agar, 37° C., 48 hours
Experimental: as §1, with “Sterilized filter papers (6 mm in diameter) were wetted with 10 μL of a solution 4-methoxy-N′-(2-(5-phenyl-1,3,4-oxadiazol-2-ylthio)acetoxy)benzimidamide (3) to be tested, containing 10 mg/mL in DMSO, and the discs were allowed to air dry.” left out

Staphylococcus aureus = assay: as above; conditions: nutrient agar, 37° C., 48 hours
Experimental: as §1, with “Sterilized filter papers (6 mm in diameter) were wetted with 10 μL of a solution 4-methoxy-N′-(2-(5-phenyl-1,3,4-oxadiazol-2-ylthio)acetoxy)benzimidamide (3) to be tested, containing 10 mg/mL in DMSO, and the discs were allowed to air dry.” left out

Aspergillus flavus = assay: Agar plate disc-diffusion, antifungal activity (inhibition zone); conditions: Sabouraud's dextrose agar, 37° C., 72 hours
Experimental: as §1, with “Sterilized filter papers (6 mm in diameter) were wetted with 10 μL of a solution 4-methoxy-N′-(2-(5-phenyl-1,3,4-oxadiazol-2-ylthio)acetoxy)benzimidamide (3) to be tested, containing 10 mg/mL in DMSO, and the discs were allowed to air dry.” left out

[1] = test system: Chrysosporium keratinophilum; assay: as above; conditions: Sabouraud's dextrose agar, 37° C., 72 hours
Experimental: as §1, with “Sterilized filter papers (6 mm in diameter) were wetted with 10 μL of a solution 4-methoxy-N′-(2-(5-phenyl-1,3,4-oxadiazol-2-ylthio)acetoxy)benzimidamide (3) to be tested, containing 10 mg/mL in DMSO, and the discs were allowed to air dry.” left out

[2] = A = concentration of comp. = 10,000 μL
[3] = B = concentration of comp. = 30,000 μL
[4] = C = concentration of comp. = 50,000 μL

SMILES	inhibition zone (Bacillus Cereus; [2]) [mm]	inhibition zone (Bacillus Cereus; [3]) [mm]	inhibition zone (Bacillus Cereus; [4]) [mm]	inhibition zone (Escherichia coli; [2]) [mm]	inhibition zone (Escherichia coli; [3]) [mm]	inhibition zone (Escherichia coli; [4]) [mm]	inhibition zone (Pseudomonas aeruginosa; [2]) [mm]	inhibition zone (Pseudomonas aeruginosa; [3]) [mm]	inhibition zone (Pseudomonas aeruginosa; [4]) [mm]	inhibition zone (Staphylococcus aureus; [2]) [mm]	inhibition zone (Staphylococcus aureus; [3]) [mm]	inhibition zone (Staphylococcus aureus; [4]) [mm]	inhibition zone (Aspergillus flavus; [2]) [mm]	inhibition zone (Aspergillus flavus; [3]) [mm]	inhibition zone (Aspergillus flavus; [4]) [mm]	inhibition zone [1, 2] [mm]	inhibition zone [1, 3] [mm]	inhibition zone [1, 4] [mm]
O=C(O)c1cn(C2CC2)c2cc(N3CCNCC3)c(F)cc2c1=O [Cip., ciprofloxacin]	29	30	42	30	39	60	29	30	53	43	44	53	29	30	42	29	30	53
COc1ccc(/C(N)=N/OC(=O)CSc2nnc(-c3ccccc3)o2)cc1 [Compound 3, 4-methoxy-N′-(2-(5-phenyl-1,3,4-oxadiazol-2-ylthio)acetoxy)benzimidamide]	27	29	41	26	34	49	23	28	41	22	30	45	21	25	38	26	28	41
